Activity calls are given as the source filed them. How the calls were made is not given here.
Tested on: rodent carcinogenicity bioassays, tumor incidence
Experiment: CCRIS carcinogenicity studies
Details: Dose: 0, Dose: 0
Summary of the method: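 NCI-built, expert-reviewed records of carcinogenicity and related test outcomes (mutagenicity, tumor promotion/inhibition) compiled from published and report sources, historical span 1985-2011, not updated.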

## Cc1ccccc1[N+](=O)[O-]
Species: MOUSE, Strain/Sex: B6C3F1/FEMALE, Route: ORAL, 1250, 2500, 5000 PPM IN DIET FOR 105 WK (STUDY DURATION: 105 WK), 1250, 2500, 5000 PPM IN DIET FOR 105 WK (STUDY DURATION: 105 WK), Tumor Site: Type of Lesion: CIRCULATORY SYSTEM: HEMANGIOSARCOMA, LARGE INTESTINE (CECUM): CARCINOMA, LIVER: HEPATOCELLULAR ADENOMA, HEPATOCELLULAR C, Tumor Site: Type of Lesion: CIRCULATORY SYSTEM: HEMANGIOSARCOMA, LARGE INTESTINE (CECUM): CARCINOMA, LIVER: HEPATOCELLULAR ADENOMA, HEPATOCELLULAR C
  carcinogen call: active; positive
Species: MOUSE, Strain/Sex: B6C3F1/MALE, Route: ORAL, 1250, 2500, 5000 PPM IN DIET FOR 105 WK (STUDY DURATION: 105 WK), 1250, 2500, 5000 PPM IN DIET FOR 105 WK (STUDY DURATION: 105 WK), Tumor Site: Type of Lesion: CIRCULATORY SYSTEM: HEMANGIOSARCOMA, LARGE INTESTINE (CECUM): CARCINOMA
  carcinogen call: active; positive
Species: RAT, Strain/Sex: F344/FEMALE, Route: ORAL, 625, 1250, 2000 PPM IN DIET FOR 105 WK (STUDY DURATION: 105 WK), 625, 1250, 2000 PPM IN DIET FOR 105 WK (STUDY DURATION: 105 WK), Tumor Site: Type of Lesion: SKIN (SUBCUTANEOUS): FIBROMA, FIBROMA OR FIBROSARCOMA, MAMMARY GLAND: FIBROADENOMA: LIVER: HEPATOCELLULAR ADENOMA
  carcinogen call: active; positive
Species: RAT, Strain/Sex: F344/MALE, Route: ORAL, 625, 1250, 2000 PPM IN DIET FOR 105 WK (STUDY DURATION: 105 WK), 625, 1250, 2000 PPM IN DIET FOR 105 WK (STUDY DURATION: 105 WK), Tumor Site: Type of Lesion: MESOTHELIUM: MALIGNANT MESOTHELIOMA, SKIN (SUBCUTANEOUS): LIPOMA, FIBROMA, FIBROSARCOMA, FIBROMA OR FIBROSARCOMA, MAMMAR, Tumor Site: Type of Lesion: MESOTHELIUM: MALIGNANT MESOTHELIOMA, SKIN (SUBCUTANEOUS): LIPOMA, FIBROMA, FIBROSARCOMA, FIBROMA OR FIBROSARCOMA, MAMMAR
  carcinogen call: active; positive
Species: RAT, Strain/Sex: F344/MALE, Route: ORAL, 2000, 5000 PPM IN DIET FOR FIRST 3 MO (STUDY DURATION: 105 WK), 2000, 5000 PPM IN DIET FOR FIRST 3 MO (STUDY DURATION: 105 WK), Tumor Site: Type of Lesion: LIVER: HEPATOCELLULAR ADENOMA OR CARCINOMA, CHOLANGIOCARCINOMA: LUNG: ALVEOLAR/BRONCHIOLAR ADENOMA, ALVEOLAR/BRONCHIOLAR
  carcinogen call: active; positive

## CO[C@@H](Cc1ccc(OCCCOc2ccc(Oc3ccccc3)cc2)cc1)C(=O)O
Species: Rat, Strain/Sex: F344/N / Female (60/Group), Route: Oral (gavage), 0.1, 0.3, 1.0 mg/kg bw daily for 104 wk, study duration 104 wk, 0.1, 0.3, 1.0 mg/kg bw daily for 104 wk, study duration 104 wk, Tumor Site: Type of Lesion: Bladder: carcinoma (0, 0, 2, 8), papilloma (0, 0, 0, 6)
  carcinogen call: active; positive. study primarily directed to urine characteristics.
Species: Rat, Strain/Sex: F344/N / Male (60/Group), Route: Oral (gavage), 0.3, 1.0, 3.0 mg/kg bw daily for 104 wk, study duration 104 wk, 0.3, 1.0, 3.0 mg/kg bw daily for 104 wk, study duration 104 wk
  carcinogen call: inactive; negative

## ClC1=C(Cl)[C@]2(Cl)[C@H]3[C@H]([C@@H]4C=C[C@H]3C4)[C@@]1(Cl)C2(Cl)Cl
Species: MOUSE, Strain/Sex: B6C3F1/FEMALE, Route: ORAL, 3, 6 PPM IN DIET FOR 80 WK (STUDY DURATION: 112-113 WK), 3, 6 PPM IN DIET FOR 80 WK (STUDY DURATION: 112-113 WK)
  carcinogen call: inactive; negative
Species: MOUSE, Strain/Sex: B6C3F1/MALE, Route: ORAL, 4, 8 PPM IN DIET FOR 74 WK (STUDY DURATION: 111-112 WK), 4, 8 PPM IN DIET FOR 74 WK (STUDY DURATION: 111-112 WK), Tumor Site: Type of Lesion: LIVER: HEPATOCELLULAR CARCINOMA
  carcinogen call: active; positive
Species: RAT, Strain/Sex: OSBORNE-MENDEL/FEMALE, Route: ORAL, 30, 60 PPM IN DIET FOR 80 WK (STUDY DURATION: 112-113 WK), 30, 60 PPM IN DIET FOR 80 WK (STUDY DURATION: 112-113 WK), Tumor Site: Type of Lesion: THYROID GLAND: FOLLICULAR CELL ADENOMA OR CARCINOMA, ADRENAL GLAND: CORTICAL ADENOMA
  carcinogen call: equivocal
Species: RAT, Strain/Sex: OSBORNE-MENDEL/MALE, Route: ORAL, 30, 60 PPM IN DIET FOR 74 WK (STUDY DURATION: 111-112 WK), 30, 60 PPM IN DIET FOR 74 WK (STUDY DURATION: 111-112 WK), Tumor Site: Type of Lesion: THYROID GLAND: FOLLICULAR CELL ADENOMA OR CARCINOMA
  carcinogen call: equivocal

## O=C(O)CCCC/C=C(\c1ccccc1)c1cccnc1
Species: MOUSE, Strain/Sex: CD-1/FEMALE, Route: ORAL, 10, 30, 100, 300 MG/KG/D IN DIET FOR 2 YR (STUDY DURATION: 2 YR), 10, 30, 100, 300 MG/KG/D IN DIET FOR 2 YR (STUDY DURATION: 2 YR)
  carcinogen call: inactive; negative
Species: MOUSE, Strain/Sex: CD-1/MALE, Route: ORAL, 10, 30, 100, 300 MG/KG/D IN DIET FOR 2 YR (STUDY DURATION: 2 YR), 10, 30, 100, 300 MG/KG/D IN DIET FOR 2 YR (STUDY DURATION: 2 YR)
  carcinogen call: inactive; negative
Species: RAT, Strain/Sex: STRAIN-CD/FEMALE, Route: ORAL, 10, 30, 100 MG/KG/D IN DIET FOR 2 YR (STUDY DURATION: 2 YR), 10, 30, 100 MG/KG/D IN DIET FOR 2 YR (STUDY DURATION: 2 YR)
  carcinogen call: inactive; negative
Species: RAT, Strain/Sex: STRAIN-CD/MALE, Route: ORAL, 10, 30, 100 MG/KG/D IN DIET FOR 2 YR (STUDY DURATION: 2 YR), 10, 30, 100 MG/KG/D IN DIET FOR 2 YR (STUDY DURATION: 2 YR)
  carcinogen call: inactive; negative

## C=CC(=C)CCC=C(C)C
Species: Mouse, Strain/Sex: B6C3F1 / Female (50/Group), Route: Oral, 0.25, 0.5, 1 g/kg in corn oil, by gavage, 5 d/wk for 104-105 wk, 0.25, 0.5, 1 g/kg in corn oil, by gavage, 5 d/wk for 104-105 wk
  carcinogen call: inactive; negative. (authors describe results as equivocal based on incidences of hepatoce
Species: Mouse, Strain/Sex: B6C3F1 / Male (50/Group), Route: Oral, 0.25, 0.5, 1 g/kg in corn oil, by gavage, 5 d/wk for 104-105 wk, 0.25, 0.5, 1 g/kg in corn oil, by gavage, 5 d/wk for 104-105 wk, Tumor Site: Type of Lesion: Liver: hepatocellular adenoma (26/50, 41/50, 43/50), hepatocellular carcinoma (14/50, 20/50, 28/50), hepatocellular aden, Tumor Site: Type of Lesion: Liver: hepatocellular adenoma (26/50, 41/50, 43/50), hepatocellular carcinoma (14/50, 20/50, 28/50), hepatocellular aden
  carcinogen call: active; positive (authors describe as clear evidence)
Species: Rat, Strain/Sex: F344/N / Female (50/Group), Route: Oral, 0.25, 0.5, 1 g/kg in corn oil, by gavage, 5 d/wk for 105 wk, 0.25, 0.5, 1 g/kg in corn oil, by gavage, 5 d/wk for 105 wk
  carcinogen call: inactive; negative. (authors describe findings as equivocal based on renal tubule adenoma
Species: Rat, Strain/Sex: F344/N / Male (50/Group), Route: Oral, 0.25, 0.5, 1 g/kg in corn oil, by gavage, 5 d/wk for 105 wk, 0.25, 0.5, 1 g/kg in corn oil, by gavage, 5 d/wk for 105 wk, Tumor Site: Type of Lesion: Kidney: renal tubule adenoma (standard evaluation - 0/50, 4/50, 8/50, standard and extended evaluations combined - 0/50
  carcinogen call: active; positive (authors describe as clear evidence)

## CC(=O)Nc1ccc2ccc3cccc4ccc1c2c34
Species: RAT, Strain/Sex: STRAIN-CD/FEMALE, Route: INTRAPERITONEAL, 67 UMOL/KG BW IN DMSO 3/WK FOR 4 WK (STUDY DURATION: 61 WK)
  carcinogen call: inactive; negative
Species: RAT, Strain/Sex: STRAIN-CD/FEMALE, Route: INTRAPERITONEAL, 67 UMOL/KG/BW IN 25 UMOL/ML DMSO 3/WK FOR 4 WK (TOTAL DOSE: 0; 119 UMOL) ADMINISTERED TO WEANLING RATS (STUDY DURATIO, 67 UMOL/KG/BW IN 25 UMOL/ML DMSO 3/WK FOR 4 WK (TOTAL DOSE: 0; 119 UMOL) ADMINISTERED TO WEANLING RATS (STUDY DURATIO
  carcinogen call: inactive; negative

— PubChem BioAssay AID1259411 (Chemical Carcinogenesis Research Information System (CCRIS), 2018)
